Results from patent publication US20040198831A1, “Remedial agent for arthrosis deformans” (priority 2001, published 2004).

Assays:
[1] = tested on: model of OA in rabbits; conditions: reported in Inflamm Res 44, Suppl 2, S117-118 (1995); cited from earlier work
[2] = tested on: rat; test: toxicity, single oral administration to rat; assay type: in vivo; conditions: oral administration to rat once
Protocol: It was considered that the toxicities of the compounds represented by the formula (I) could be very low and safe to use as a medicine. For example, the lowest lethal dose in oral administration of compound (II) to rat once was 2000 mg/kg or more.

[3] = tested on: partial meniscectomy model in rabbits; test: partial meniscectomy model of osteoarthritis in rabbits (erosion area); assay type: in vivo, rabbit; conditions: female rabbits, 1, 3 and 10 mg/kg per day, administered twice a day, 7 days after operation, FIG. 1
Protocol: Efficiencies of the compounds in the present invention on osteoarthrosis were proven, for example, by an experiment of a partial meniscectomy model in rabbits.
Female rabbits (Kbs: NZW (Healthy)) were preliminarily bred for a week and subjected to ablative operation of meniscus by the following method.
Each animal was anesthetized by a subcutaneous injection of 2% parenteral celactal (0.05 ml/kg) to the poll and an intravenous injection of nembutal (20 mg/kg) to the marginal auricle. Their right knees were disinfected with Iodine tincture that dilutes five times with distilled water. If necessary, local anesthesia was performed by dropping 2% of parenteral xylocaine to incised part.
Then, skins and articular capsules outside knees of right hind legs were incised at right angle to patellar ligament, fibular collateral ligaments and sesamoid ligaments were transected. In that case, parenteral solution of bosmin was dropped for the arrest of hemorrhage. […]
After anesthesia by an intravenous injection of parenteral nembutal (40 mg/kg) to marginal auricle, the animals were made to die by venesection and gathered their right knees of joint part. […] After collecting all samples and masking them, their erosion areas were measured with a stereoscopic microscope. […]

Structure (SMILES) | effect on a model of OA in rabbits [1] | lowest lethal dose [2] | inhibitory effect on erosion area of thigh bone [3]
COc1ccc(S(=O)(=O)N(Cc2cccnc2)[C@@H](C(=O)NO)C(C)C)cc1.Cl [CGS-27023A, 2(R)-[N-(4-methoxyphenylsulfonyl)-N-(3-pyridylmethyl)amino]-3-methylbutanohydroxamic acid hydrochloride] | could be effect |  | 
C[C@@H](C[C@@H](CO)NC(=O)c1ccc(Oc2ccccc2)cc1)C(=O)NO [compound (II), N-hydroxy-5-hydroxy-2(S)-methyl-4(S)-(4-phenoxybenzoyl)aminopentanamide] |  | ≥ 2000 mg/kg | inhibitory effect
